Experiment: in vitro
Conditions: human, hela cells, % viability

Row | SMILES | viability at 28.5 h, 10 µM
1 | COc1ccc(Cl)cc1NS(=O)(=O)N(C)C [CBK025794] | 90.6%
2 | CCc1c(C)nc2c(N3CCOC3=O)cccc2c1SCCC(=O)O [CBK159595T] | 91.7%
3 | O=C(O)CN(CC(=O)Nc1ccc(Cl)cc1)Cc1ccccc1 [CBK286585] | 85.5%
4 | Cc1ccc(C2(CN3CCN(Cc4cnc(C)n4C)CC3)CC2)cc1 [CBK282469] | 93.5%
5 | COc1ccc(CN2CCN(C(=O)c3cccc(F)c3)CC2)c(OC)c1OC [CBK074523] | 95.5%
6 | C=CCn1c2ccccc2c2nnc(SCc3ccc([N+](=O)[O-])cc3)nc21 [CBK265630] | 92.5%
7 | COc1ccc(-c2nc(NC(=O)C3CCC(OC)CC3)cnc2-c2cccc(C)c2)cn1 (centres unmarked) [CBK036813] | 109%
8 | O=c1[nH]c2cccc(O)c2o1 [CBK048613] | 90.9%
9 | CN(C)CC(C)(C)CNC1CCN(C)CC1 [CBK261926] | 95.2%
10 | O=C1NC(=O)C(CC(=O)N2CCC3(CCN(C(=O)Cc4c[nH]c5ccccc45)C3)C2)N1 (centres unmarked) [CBK131436] | 92.8%
11 | Cc1ccc(NC2=NC(C(=O)Nc3ccc(C)c(C)c3)CC(=O)N2)cc1 (centres unmarked) [CBK266718] | 96.9%
12 | COc1cccc(Cc2c(C)nc3c(C(=O)NCCCN4CCCC4=O)cnn3c2C)c1 [CBK162055] | 111%
13 | CN(Cc1ccc(-c2ccc(S(C)(=O)=O)cc2)cn1)C1CCN(C(=O)CC(C)(C)O)CC1 [CBK165684T] | 93.1%
14 | CS(=O)(=O)Nc1nc2ccc(S(C)(=O)=O)cc2s1 [CBK092166] | 100%
15 | CN1C[C@@H](NS(C)(=O)=O)C[C@H]1c1nc(-c2ccc3ccccc3c2)no1 [CBK288859] | 106%
16 | CC(C)[C@H](CO)Nc1nc(-c2ccc(N3CCOCC3)cc2)cn2ccnc12 [CBK066151] | 108%
17 | COc1cccc(CC(=O)NCC(c2cccs2)N2CCOCC2)c1 (centres unmarked) [CBK305621] | 95.9%
18 | O=C(O)C1(c2ccc(Br)cc2)CCCC1 [CBK287134] | 87.3%
19 | Nc1ncc(Br)nc1N1CCC[C@@H]1CO [CBK085450] | 105%
20 | CC(=O)NC[C@@H]1C=C(C)[C@H](CC(=O)Nc2ccccn2)C[C@H]1C(C)C [CBK289209] | 92.3%
21 | c1cncc(-c2cn3ccnc3c(NC3CCCCC3)n2)c1 [CBK093606] | 84.6%
22 | COc1ccc(CN(CCCN2CCOCC2)C(=O)NCCCN2CCCC2=O)cc1OC [CBK159180] | 93.2%
23 | C=CCNC(=O)c1cnc(-c2ccc(Cl)cc2)c(-c2ccco2)c1 [CBK036738] | 90.6%

Row | SMILES | viability at 28.5 h, 10 µM
24 | CCN(CC)C(=O)c1sc2ncccc2c1NS(=O)(=O)c1c(C)noc1C [CBK050617] | 115%
25 | N#Cc1c(F)cccc1N1CCCC(C(=O)Nc2nncs2)C1 (centres unmarked) [CBK306335] | 96.8%
26 | CCOc1ccc2[nH]c(C(=O)NC3CCCOC3)cc2c1 (centres unmarked) [CBK283114] | 101%
27 | CCN(CC)CC(=O)Nc1c2c(nc3ccccc13)N(C)CC2 [CBK023917C] | 110%
28 | CC(=O)NCCSc1ncccc1C(F)(F)F [CBK105296] | 101%
29 | c1ccc([C@@H]2CN(Cc3ccccn3)C[C@H]2c2cc[nH]n2)cc1 [CBK285162] | 105%
30 | COCCn1ccnc1C1CCN(C(=O)Cc2ccc(O)c(F)c2)CC1 [CBK306649] | 82.6%
31 | O=C(CCSCc1nc2sc3c(c2c(=O)[nH]1)CCC3)N1CCC1 [CBK304536] | 75.7%
32 | Nc1nn2c(c1Cc1c(Cl)cccc1Cl)OCCC2 [CBK088843] | 92.8%
33 | Cc1ccc(NC(=O)N(Cc2ccc(-c3ccccc3)cc2)CC(C)(C)CN)cc1[N+](=O)[O-] [CBK002439C] | 83.7%
34 | Cc1cccnc1NC(=S)NC(=O)c1ccc([N+](=O)[O-])cc1 [CBK263931] | 92.9%
35 | Cc1oc2c(c1C(=O)N(C)CCN1CCCCC1)CCCC2 [CBK281907] | 90.8%
36 | COc1ccc(-c2cc(C(=O)Nc3c(C)cccc3C)n[nH]2)c(OC)c1 [CBK288114] | 107%
37 | CC(C)C(=O)N1CC2(CCN(Cc3cccc(C(F)(F)F)c3)CC2)c2ccccc21 [CBK126716] | 102%
38 | COC(=O)c1ccc(NS(=O)(=O)c2cccc3cccnc23)cc1 [CBK028694] | 104%
39 | CCOC(=O)c1c(NC(=O)CSc2nnc3ccccn23)sc2c1CCC(C)C2 (centres unmarked) [CBK265668] | 89%
40 | Cc1ccc(CS(=O)(=O)N(CCO)C2CCC2)c(F)c1 [CBK304101] | 82.2%
41 | O=S(=O)(Nc1ccccc1OC(F)(F)F)c1ccc(N2CCNCC2)c2ccccc12 [CBK003933C] | 92.8%
42 | O=C(O)CS(=O)(=O)c1ccccc1C(=O)O [CBK261083] | 98.9%
43 | CC(C)n1c(=O)n(CC(=O)NCc2ccccc2)c2cccnc21 [CBK283758] | 99.8%
44 | Cc1ccc(OCc2occc2C(=O)N2CCCCC(N)C2)cc1 (centres unmarked) [CBK306840] | 107%
45 | COc1ccc(OCCN2C(=O)CNC2=S)cc1 [CBK007177] | 77%
46 | Cc1ccccc1NC(=O)Cn1c(=O)n(CC(=O)Nc2ccccc2C)c2ccccc21 [CBK266938] | 101%

Row | SMILES | viability at 28.5 h, 10 µM
47 | O=C(Nc1ccc(F)cc1)c1cccc(NS(=O)(=O)c2cc(Cl)sc2Cl)c1 [CBK038980] | 95.8%
48 | O=C(CN1C(=O)COc2ccc(Cl)cc21)Nc1cccc(C(=O)O)c1 [CBK269667] | 93.1%
49 | COc1cc(OC)c2c(c1)OC1(CCN(C(=O)C3CCCO3)CC1)CC2=O (centres unmarked) [CBK156476] | 93.3%
50 | CN(C)CCN1C(=O)C2C3c4ccccc4C([N+](=O)[O-])(c4ccccc43)C2C1=O (centres unmarked) [CBK269286] | 81.4%
51 | Cc1nn(C)cc1CN1CCCC1c1nc(N(C)C)ncc1-c1cccc(Cl)c1 (centres unmarked) [CBK286501] | 86%
52 | O=S(=O)(NC(c1c[nH]c2ccccc12)C(Cl)(Cl)Cl)c1ccccc1 (centres unmarked) [CBK263279] | 91.7%
53 | C[C@@H](Cn1nc2c(cc1=O)CCCC2)NC(=O)c1ccco1 [CBK284559] | 92.2%
54 | CCNc1cc2ccccc2c(-c2ccc3c(c2)OCCCO3)n1 [CBK089641] | 99.2%
55 | NCC(=O)Nc1ccc(F)c(F)c1 [CBK046313] | 103%
56 | COc1ccc(C2OCCN2C(C)=O)cc1 (centres unmarked) [CBK004536] | 80.8%
57 | CC(=O)N1CCc2nc(CC3CC3)nc(NCCn3ccnn3)c2CC1 [CBK306933] | 94.7%
58 | Cc1ccc(C2=CCN(CC(=O)Nc3ncc(C)s3)CC2)o1 [CBK283383] | 90%
59 | Cc1cc(Br)ccc1C(=O)NCCc1c[nH]c2ccc(Cl)cc12 [CBK159771] | 91%
60 | N#Cc1ccc(Cn2cc(C(=O)C(N)=O)c3ccccc32)cc1 [CBK270062] | 84.2%
61 | Cc1nc(C2CCCC2)cc([C@H]2CN3CC[C@H]2C[C@@H]3CNC(=O)c2ccco2)n1 [CBK289120] | 109%
62 | Cc1ccc2c(CC(=O)N3CCNCC3c3cnn(C)c3)coc2c1C (centres unmarked) [CBK304271C] | 87%
63 | Cc1nc(CN2CCCC(NCc3ccc4ccccc4c3)C2)no1 (centres unmarked) [CBK305160] | 96.5%
64 | Cc1nn(C(C)CC(=O)NCCN2CCC(C)CC2)c(C)c1Cl (centres unmarked) [CBK281558] | 90.2%
65 | O=C(CCCn1ccnc1)N1CCCC(c2cc3cccnc3[nH]2)C1 (centres unmarked) [CBK284959] | 107%
66 | CS(=O)(=O)Nc1nccnc1OC1CCN(CCCC#N)CC1 [CBK084276] | 99.4%
67 | COCC(=O)N1CCC(Oc2ccc3ncccc3c2)(C(=O)O)CC1 [CBK307340] | 103%
68 | CN1[C@@H](CCC(=O)N2CCN(c3ccccn3)CC2)CNC(=O)[C@H]2NCC[C@H]21 [CBK289031] | 95.2%
69 | Cn1ccnc1C1(O)CC2CCC(C1)N2C(=O)c1cccc(Cl)c1 (centres unmarked) [CBK284091] | 86%

Row | SMILES | viability at 28.5 h, 10 µM
70 | COc1ccc(NS(=O)(=O)c2ccc(NC(=S)NC(=O)C(C)(C)C)cc2)cc1 [CBK268990] | 109%
71 | Cc1ccc(OCc2cccc3nsnc23)cc1[N+](=O)[O-] [CBK266063] | 98.2%
72 | O=C(NCCN1CCOCC1)C1CCCN(c2nc3c(-c4ccccc4)csc3c(=O)[nH]2)C1 (centres unmarked) [CBK215509] | 106%
73 | Cc1ccc(S(=O)(=O)Cc2ccc(C(=O)Nc3cccc(-c4cnc5ccccc5n4)c3)cc2)cc1 [CBK268589] | 89.3%
74 | CC1CCN(S(=O)(=O)c2ccc(C(=O)NC(C(=O)O)C(C)O)cc2)CC1 (centres unmarked) [CBK297151] | 99.1%
75 | O=S(=O)(CC(CN1CCCCC1)N1CCCCC1)c1ccc2ccccc2c1 (centres unmarked) [CBK267087] | 100%
76 | CCOC(=O)C1(C2CCCCC2)CCN(C(=O)/C=C/c2ccc3c(c2)OCO3)CC1 [CBK136924] | 92.8%
77 | Cc1nc(CN2C(=O)CC3(C2=O)C(=O)N(CCCCOc2ccccc2)c2ccccc23)cs1 (centres unmarked) [CBK076103] | 102%
78 | CCOC(=O)c1c(N)sc2c1CC(c1ccccc1)SC2c1ccccc1 (centres unmarked) [CBK293955] | 87.5%
79 | Cc1cccc2cc(C#N)c(NCCCn3ccnc3)nc12 [CBK109369] | 77.9%
80 | CCCc1ccc(S(=O)(=O)N(c2ccccc2)C2CCNCC2)cc1 [CBK165121T] | 108%
81 | CN(C)CCCNC(=O)C1CCCCN1S(=O)(=O)c1ccc(C(C)(C)C)cc1 (centres unmarked) [CBK200070] | 101%
82 | Nc1nnc(SCCN2C(=O)c3ccccc3S2(=O)=O)s1 [CBK267688] | 88.6%
83 | O=C(O)c1oc2ccccc2c1CSc1ccccn1 [CBK286981] | 89.5%
84 | CN1CCN(C(=O)c2ccc(NS(=O)(=O)c3cc(Cl)sc3Cl)cc2)CC1 [CBK034549] | 94%
85 | Cc1cnoc1-c1cc(Br)cc(Br)c1O [CBK012420] | 104%
86 | Cc1nnc(NS(=O)(=O)c2ccc(Br)cc2)s1 [CBK068266] | 101%
87 | COc1cccc(NC(=O)C2C(C(=O)O)C3C=CC2C32CC2)c1 (centres unmarked) [CBK287106] | 81.6%
88 | CC(=O)NC(c1ccccn1)C1CCCN(C(=O)C2CC2C)C1 (centres unmarked) [CBK285032] | 84.2%
89 | Cn1cnnc1SCC(=O)N1CCc2ccccc21 [CBK287576] | 82.7%

Reference: paper PMC12040169 (PLOS Biology, 2025)
